Reference: US10975352B2, “Methods of enhancing cell survival of stem cells” (The Scripps Research Institute, priority 2008, dated 2021)

Tests used:
[1] = system: hESCs; experiment: ALP positive colony formation / low-density survival assay of dissociated hESCs on Matrigel; assay type: cell-based, human; settings: adherent culture (e.g. Matrigel-coated plate)
Protocol: Human ESC lines H1, HUES7 and HUES9 were cultured on irradiated MEF feeder cells in DMEM-F12 supplemented with 2 mM L-glutamine, lx nonessential amino acids, 20% serum replacement (Invitrogen) and 10 ng/ml basic Fibroblast growth factor (Invitrogen). Chemically-defined and feeder-free hESC culture was described previously (Yao, S. et al., Proc Natl Acad Sci USA 103 (18):6907-6912 (2006)). Briefly, hESCs were grown on Matrigel-coated tissue culture plates in N2B27-CDM (DMEM-F12 supplemented with 1×N2 supplements, lx B27 supplements, 2 mM L-glutamine, 0.11 mM 2-mercaptoethanol, lx nonessential amino acids, and 0.5 mg/ml BSA (fraction V)) and 20 ng/ml bFGF. Human ESCs were passaged every 5-6 days with 0.05% trypsin.
For clonal survival assays, single hESCs were diluted to clonal density and plated onto 96-well Matrigel-coated plate. For low-density survival assays, 500 cells were plated onto 96-well Matrigel-coated plate. To visualize hESC colonies, cultures were fixed in 4% paraformaldehyde in PBS for 5 min, washed once in PBS, then stained for alkaline phosphatase activity as described in manufacturer's instructions. ALP positive colonies were counted on an inverted microscope.
ALP detection kit and integrin antibodies were from Chemicon. AG825 (Erb2 inhibitor), AG1478 (EGFR inhibitor), PPP (IGFR1 inhibitor) were purchased from Calbiochem. Antibodies raised against the intracytoplasmic tail of E-cadherins (Transduction Laboratories, Lexington, Ky.) were used for immunoprecipitation. The antibody TS2/16 was from Pierce. Antibodies to the extracellular domain of E-cadherin molecule were from Zymed (Carlsbad). Antibodies against extracellular signal-regulated kinase/MAPK, EGFR1, ERB2, GADPH and phosphorylated form of AKT were from Cell Signaling. Mouse monoclonal anti-phosphotyrosine (4G-10 clone) was from Upstate Biotechnology. Ptn and Tzv were added to culture medium at 2 μM. […]

[2] = system: hESCs; experiment: Cell adhesion assay; assay type: cell-based, human
Protocol: Cell adhesion assays were performed in 96-well microtiter plates coated with Matrigel. After trypsin, hESCs were resuspended in the chemically-defined media containing the desired compounds. Cells were then added to the microtiter wells and incubated for 3 h at 37° C. Unbound and loosely bound cells were removed by shaking and washing, and the remaining cells were then fixed immediately. The wells were washed 3 times with 200 μl of H2O, and attached cells were stained with Crystal Violet (Sigma). The absorbance of each well at 570 nm was then measured. For experiments with blocking antibodies, cells were pre-incubated with antibodies on ice for 30 min, and adhesion assays were performed in the presence of antibodies. Each sample was assayed independently for three times.

[3] = system: E-cadherin; experiment: E-cadherin expression in hESCs after trypsin dissociation (Western blot, flow cytometry, RT-PCR); assay type: cell-based, human
Description: We then examined E-cadherin expression in hESCs after trypsin dissociation. […] This observation was consistent with the report that the extracellular region of E-cadherin has an endoproteolytic cleavage site near the transmembrane domain (Damsky, C. H. et al., Cell 34 (2):455-466 (1983)). […] Therefore, Tzv is likely to affect cell adhesion by modulating cell surface level of E-cadherins. […] It is likely that Tzv exerts its effect through stabilization of E-cadherin on the cell surface.
To assess the expression of E-cadherin, activated integrin and SSEA4, dissociated cells (3×10^5) were washed with PBS and resuspended in PBS containing 2% goat serum. Cells were then incubated with the appropriate antibody for 1 h at 4° C., washed with the blocking solution, and labeled with FITC-conjugated secondary antibody for 30 min at 4° C. Cells were then washed and analyzed on a FACS Calibur flow cytometer.

[4] = system: E-cadherin; experiment: Endocytosis assay; assay type: cell-based, human
Protocol: hESCs were incubated with 1.5 mg/ml sulfosuccinimidyl 2-(biotinamido) ethyl-dithioproprionate (sulfo-NHS-SS-biotin) (Pierce Chemical Co.) on ice, followed by washing and quenching. Endocytosis of E-cadherin was initiated by Ca^2+ depletion and 37° C. incubation. Cells were then incubated in two 20-min washes of glutathione solution (60 mM glutathione, 0.83 M NaCl, with 0.83 M NaOH and 1% BSA added before use) at 0° C. which removed all cell surface biotin groups. Remaining biotinylated proteins were sequestered inside cells by endocytosis and were therefore protected from glutathione stripping. Biotinylated proteins were recovered on streptavidin beads and analyzed by SDS-PAGE. E-Cadherins were detected by immunoblotting. Total level of surface E-cadherin before endocytosis was used as reference.

[5] = system: primary human pancreatic islets/beta cells; experiment: Cell death of dispersed primary human pancreatic islets/beta cells; assay type: cell-based; settings: plate coated with matrigel or laminin; 1-2 mM in media
Protocol: For example, the inventors dispersed primary human pancreatic islets/beta cells plated as single cells onto a tissue culture plate that was coated with matrigel or laminin. […] Accordingly, in some embodiments, a compound of the present invention is administered to an individual in need of pancreatic beta and/or islet cells, wherein administration of the compound results in an increase in the number of beta or islet cells in the individual.

[6] = system: epithelial to mesenchymal transition/EMT; experiment: Induction of MET / inhibition of EMT; assay type: cell-based
[7] = system: E-cadherins, EGFR1 and ERB2; experiment: Immunoprecipitation of E-cadherins with EGFR1 and Erb2; assay type: cell-based, human
Description: Interplay between physical/structural environment and growth factor plays a very important role in cell fate regulation (Comoglio, P. M., Boccaccio, C., & Trusolino, L., Curr Opin Cell Biol 15 (5):565-571 (2003)). To examine whether growth factors are involved in integrin-mediated hESC survival, we treated dissociated hESCs with Tzv or Ptn together with individual highly specific growth factor receptor inhibitors. […] Similarly inhibition of FGFR, IGFR, EGFR1 or Erb2 also greatly abolished Tzv-induced hESC survival in suspension culture.
ALP detection kit and integrin antibodies were from Chemicon. AG825 (Erb2 inhibitor), AG1478 (EGFR inhibitor), PPP (IGFR1 inhibitor) were purchased from Calbiochem. Antibodies raised against the intracytoplasmic tail of E-cadherins (Transduction Laboratories, Lexington, Ky.) were used for immunoprecipitation. The antibody TS2/16 was from Pierce. Antibodies to the extracellular domain of E-cadherin molecule were from Zymed (Carlsbad). Antibodies against extracellular signal-regulated kinase/MAPK, EGFR1, ERB2, GADPH and phosphorylated form of AKT were from Cell Signaling. Mouse monoclonal anti-phosphotyrosine (4G-10 clone) was from Upstate Biotechnology. Ptn and Tzv were added to culture medium at 2 μM.

[8] = system: stem cells; experiment: Survival and anti-differentiation of stem cells ex vivo; assay type: cell-based; settings: human and mouse embryonic, neural, skin, mesenchymal, hematopoietic, stromal and epithelial stem cells; contact immediately after isolation
Description: In some embodiments, the invention provides methods of promoting survival and anti-differentiation in stem cells ex-vivo.

## O=C(NCc1ccccc1)c1csc(Nc2ccncn2)n1 [Tzv, N-benzyl-2-(pyrimidin-4-ylamino)thiazole-4-carboxamide]
[1]
  survival of dissociated hESCs in adherent culture: greatly improved survival
[2]
  adhesion of dissociated hESCs to Matrigel or laminin: dramatically increased adhesion
  adhesion of hESCs to gelatin or poly-lysine: not affected
[3]; flow cytometry
  cell surface E-cadherins: significantly increased
[3]; semiquantitative RT-PCR
  E-cadherin transcripts vs mock controls: comparable amounts
[3]; time-course Western blot
  full-length E-cadherin expression after trypsin dissociation: significantly increased
[4]
  internalization of E-cadherins: significantly blocked
[5]
  cell death of single primary beta cells: cell death was inhibited
[6]
  MET induction and EMT inhibition: can induce MET (the reverse of EMT) and inhibit EMT
[7]
  binding of E-cadherins to EGFR1 and ERB2: induced binding of E-cadherins to EGFR1 and ERB2
[8]
  survival and anti-differentiation of stem cells: effective in promoting survival and anti-differentiation
